From patent publication US12453720B2, “Application of norharmane in improving antibacterial activity of antibiotics” (ZHEJIANG UNIVERSITY OF TECHNOLOGY, priority 2020, dated 2025)

System: drug-resistant Pseudomonas aeruginosa GDMCC No: 61027 (strain C218)
Experiment: Checkerboard microdilution of norharmane combined with an antibiotic (OD600 growth, MIC at 80% inhibition, FICI and ΔE evaluation)
Type: cell-based
Description: Preparation of bacterial solution: Pseudomonas aeruginosa GDMCC No: 61027 stored at −80° C., was thawed at room temperature, streaked on LB agar medium and cultured at 37° C. for 24 h, and then a single well-developed colony was inoculated again and cultured for 24 h at 37° C. to ensure that the strain was in the growth phase. A single colony was selected, inoculated into LB medium, and cultured at 37° C. and 200 rpm. for 16 h. The resulting solution was diluted 10000 times with fresh LB medium to obtain Pseudomonas aeruginosa GDMCC No:61027 bacterial solution whose concentration calculated by of the amount of bacterial viable count was […].
According to the checkerboard microdilution method, the norharmane mother liquor was diluted 4 times with methanol, and the concentration ranges of norharmane and an antibiotic (polymyxin B, imipenem-cilastatin sodium or levofloxacin) in combination were screened.
Methanol was used as a diluent, the preparation concentrations of norharmane were 160, 80, 40, 20, 10, 5 and 2.5 μg/mL, the preparation concentrations of polymyxin B were 31.25, 15.6, 7.8, 3.9, 1.95, 0.98 and 0.49 μg/mL; the preparation concentrations of imipenem-cilastatin sodium were 8000, 4000, 2000, 1000, 500, 250 and 125 μg/mL; the preparation concentrations of levofloxacin were 250, 125, 62.5, 31.25, 15.6, 7.8 and 3.9 μg/mL; and the preparation concentrations of ofloxacin were 2000, 1000, 500, 250, 125, 62.5, and 31.25 μg/mL.
According to FIG. 7, each antibiotic is added into a 96-well plate, and 50 μL of the antibiotic solutions were drawn and added into wells in columns 2˜8 of the %-well plate in the order of concentration from low to high, while the same amount of methanol instead of antibiotic was added into column 1. 50 μL of the norharmane solutions were drawn and added into wells in rows G˜A of the 96-well plate in the order of concentration from low to high, while no norharmane was added into wells in row H. After the 96-well plate was left to stand to evaporate methanol completely, 200 μL of the Pseudomonas aeruginosa GDMCC No: 61027 bacterial solution (2.6×10^9 CFU) were added into the wells in columns 1˜8. Therefore, the final concentrations of norharmane were 40, 20, 10, 5, 2.5, 1.25, 0.63 and 0 μg/mL; the final concentrations of norharmane were polymyxin B is 7.8, 3.9, 1.95, 0.98, 0.49, 0.24, 0.12 and 0 μg/mL; the final concentrations of imipenem-cilastatin sodium were 2000, 1000, 500, 250, 125, 62.5, 31.25 and 0 μg/mL; the final concentrations of levofloxacin were 62.5, 31.25, 15.6, 7.8, 3.9, 1.95, 0.98 and 0 μg/mL; and the final concentrations of ofloxacin were 500, 250, 125, 62.5, 31.25, 15.6, 7.8 and 0 μg/mL. 200 μL of fresh LB medium were added to column 9. Wherein, well H1 is a growth control well, containing only bacterial solution and no drugs, and column 9 is a blank control containing only LB liquid medium. The prepared 96-well plate was placed in a constant temperature incubator at 37° C. for 24 h, and then OD600 was measured with a microplate reader and the results were recorded. All experiments were repeated three times.
OD value of each well at 600 nm was measured with a microplate reader. And the percentage of the bacterial growth inhibition of each well was determined as
Loewe additivity (LA) theory assumes that the drugs applied in combination have no interaction, i.e., null reference model. FICI method is the non-parametric method of LA theory, which can be expressed as: ΣFIC=FICA+FICB=CA/MICA+CB/MICB
wherein MICA and MICB denote minimum inhibitory concentrations of two drugs A and B when used alone, respectively, and CA and CB denote concentration of drugs A and B in combination respectively while their combined effect is equal to the sum of their individual separate effects. ΣFIC value of each well with percentage of the bacterial growth inhibition >80% were calculated, and in the ΣFIC values obtained, if ΣFICmax>4, FICI=ΣFICmax; if ΣFICmax<4, FICI=ΣFICmin. […]

[1] = end point 80% growth inhibition

## C[C@H]1COc2c(N3CCN(C)CC3)c(F)cc3c(=O)c(C(=O)O)cn1c23 [Levofloxacin, levofloxacin, reference compound]
[1]
  MIC MICB: minimum inhibitory concentration of the antibiotic when used alone: 62.5 µg/mL
Levofloxacin 0.98 μg/ml alone (norharmane 0)
  Growth percentage: 91%
Levofloxacin 1.95 μg/ml alone (norharmane 0)
  Growth percentage: 89%
Levofloxacin 3.9 μg/ml alone (norharmane 0)
  Growth percentage: 85%
Levofloxacin 7.8 μg/ml alone (norharmane 0)
  Growth percentage: 72%
Levofloxacin 15.6 μg/ml alone (norharmane 0)
  Growth percentage: 42%
Levofloxacin 31.25 μg/ml alone (norharmane 0)
  Growth percentage: 26%
Levofloxacin 62.5 μg/ml alone (norharmane 0)
  Growth percentage: 5%

## c1ccc2c(c1)[nH]c1cnccc12 [Norharmane, norharmane]
Norharmane 0.63 μg/ml alone, imipenem-cilastatin sodium 0 (Table 2)
  Growth percentage: 94%
Norharmane 0.63 μg/ml alone, levofloxacin 0 (Table 3)
  Growth percentage: 98%
Norharmane 0.63 μg/ml alone, ofloxacin 0 (Table 4)
  Growth percentage: 99%
Norharmane 0.63 μg/ml alone, polymyxin B 0 (Table 1)
  Growth percentage: 99%
Norharmane 1.25 μg/ml alone, imipenem-cilastatin sodium 0 (Table 2)
  Growth percentage: 92%
Norharmane 1.25 μg/ml alone, levofloxacin 0 (Table 3)
  Growth percentage: 94%
Norharmane 1.25 μg/ml alone, ofloxacin 0 (Table 4)
  Growth percentage: 98%
Norharmane 1.25 μg/ml alone, polymyxin B 0 (Table 1)
  Growth percentage: 96%
Norharmane 2.5 μg/ml alone, imipenem-cilastatin sodium 0 (Table 2)
  Growth percentage: 87%
Norharmane 2.5 μg/ml alone, levofloxacin 0 (Table 3)
  Growth percentage: 94%
Norharmane 2.5 μg/ml alone, ofloxacin 0 (Table 4)
  Growth percentage: 97%
Norharmane 2.5 μg/ml alone, polymyxin B 0 (Table 1)
  Growth percentage: 96%
Norharmane 5 μg/ml alone, imipenem-cilastatin sodium 0 (Table 2)
  Growth percentage: 87%
Norharmane 5 μg/ml alone, levofloxacin 0 (Table 3)
  Growth percentage: 92%
Norharmane 5 μg/ml alone, ofloxacin 0 (Table 4)
  Growth percentage: 95%
Norharmane 5 μg/ml alone, polymyxin B 0 (Table 1)
  Growth percentage: 95%
Norharmane 10 μg/ml alone, imipenem-cilastatin sodium 0 (Table 2)
  Growth percentage: 86%
Norharmane 10 μg/ml alone, levofloxacin 0 (Table 3)
  Growth percentage: 98%
Norharmane 10 μg/ml alone, ofloxacin 0 (Table 4)
  Growth percentage: 94%
Norharmane 10 μg/ml alone, polymyxin B 0 (Table 1)
  Growth percentage: 95%
Norharmane 20 μg/ml alone, imipenem-cilastatin sodium 0 (Table 2)
  Growth percentage: 85%
Norharmane 20 μg/ml alone, levofloxacin 0 (Table 3)
  Growth percentage: 95%
Norharmane 20 μg/ml alone, ofloxacin 0 (Table 4)
  Growth percentage: 88%
Norharmane 20 μg/ml alone, polymyxin B 0 (Table 1)
  Growth percentage: 95%
Norharmane 40 μg/ml alone, imipenem-cilastatin sodium 0 (Table 2)
  Growth percentage: 82%
Norharmane 40 μg/ml alone, levofloxacin 0 (Table 3)
  Growth percentage: 93%
Norharmane 40 μg/ml alone, ofloxacin 0 (Table 4)
  Growth percentage: 81%
Norharmane 40 μg/ml alone, polymyxin B 0 (Table 1)
  Growth percentage: 84%
Norharmane used alone, end point 80% growth inhibition
  MIC MICA: minimum inhibitory concentration of a drug used alone: 40 µg/mL

## CC1COc2c(N3CCN(C)CC3)c(F)cc3c(=O)c(C(=O)O)cn1c23 (centres unmarked) [Ofloxacin, ofloxacin, reference compound]
[1]
  MIC MICB: minimum inhibitory concentration of the antibiotic when used alone: 500 µg/mL
Ofloxacin 7.8 μg/ml alone (norharmane 0)
  Growth percentage: 83%
Ofloxacin 15.6 μg/ml alone (norharmane 0)
  Growth percentage: 79%
Ofloxacin 31.25 μg/ml alone (norharmane 0)
  Growth percentage: 73%
Ofloxacin 62.5 μg/ml alone (norharmane 0)
  Growth percentage: 67%
Ofloxacin 125 μg/ml alone (norharmane 0)
  Growth percentage: 54%
Ofloxacin 250 μg/ml alone (norharmane 0)
  Growth percentage: 36%
Ofloxacin 500 μg/ml alone (norharmane 0)
  Growth percentage: 6%

## polymyxin B [reference compound]
[1]
  MIC MICB: minimum inhibitory concentration of the antibiotic when used alone: 7.8 µg/mL
Polymyxin B 0.12 μg/ml alone (norharmane 0)
  Growth percentage: 100%
Polymyxin B 0.24 μg/ml alone (norharmane 0)
  Growth percentage: 98%
Polymyxin B 0.49 μg/ml alone (norharmane 0)
  Growth percentage: 98%
Polymyxin B 0.98 μg/ml alone (norharmane 0)
  Growth percentage: 90%
Polymyxin B 1.95 μg/ml alone (norharmane 0)
  Growth percentage: 52%
Polymyxin B 3.9 μg/ml alone (norharmane 0)
  Growth percentage: 29%
Polymyxin B 7.8 μg/ml alone (norharmane 0)
  Growth percentage: 5%
